# Results as given in US9945843B2, “Methods for identifying compounds that inhibit G protein-coupled receptor (GPR84) agonist-stimulated chemotaxis” (GALAPAGOS NV, priority 2011, dated 2018).
# Tests used:
# [1] = tested on: IL8-stimulated chemotaxis of neutrophils; test: Human neutrophil migration assay, IL8 as chemotactic agent; settings: for inhibition at 0.1 µM: read-out: Percentage of chemotaxis inhibition (PIN) @ 0.1 μM; for inhibition at 1 µM: read-out: Percentage of chemotaxis inhibition (PIN) @ 1 μM; for inhibition at 10 µM: read-out: Percentage of chemotaxis inhibition (PIN) @ 10 μM
# Procedure: In the neutrophil migration assay, neutrophils, freshly isolated from buffy coats from human volunteers, are treated with a compound for 30 minutes. Subsequently, the neutrophils are transferred to the upper wells of a Corning HTS transwell 96 permeable support system, of which the lower wells are filled with a Embelin solution.
# A human buffy coat is diluted with an equal volume of ice cold DPBS. 20 mL of the diluted buffy coat was gently mixed with 4 mL of ACD buffer (140 mM citric acid, 200 mM sodium citrate and 220 mM dextrose). Then, 12 mL of the 6% dextran/0.9% NaCl solution (15 g dextran T2000 and 2.25 g NaCl dissolved in 250 mL H2O) is added to the mixture and the samples are inverted gently up to 20 times. The total volume is transferred to a new recipient and incubated at room temperature for 1 h for complete separation of the two phases to occur. The yellowish supernatant is then transferred to a clean centrifugation tube and centrifuged for 12 minutes at 1300 rpm and 4° C. After centrifugation, the supernatant is discarded and the remaining cell pellet is rapidly resuspended in 12 mL of ice-cold H2O for red blood cell lysis to occur. After 20 seconds, 4 mL of ice-cold 0.6 M KCl is added.
# A cell suspension of 8.9×10^6 cells per milliliter is prepared. 20 μL of compound solution in chemotaxis buffer is added to 180 μL cell suspension. The mixture is incubated at 37° C. for 30 minutes with intermediate resuspension of the cells after 15 minutes. […] The receiver well of the transwell system is then filled with 200 μL chemotaxis buffer containing compound and chemotactic agent (Embelin). After incubation at 37° C. in 5% CO2 for 1 h, the upper plate of the transwell system was removed and the cell suspension in the receiver plate is transferred to a 96-well V-bottom plate. 50 μL of DPBS is added to the receiver plate to prevent remaining cells from drying out. The V-bottom plate is centrifuged for 6 minutes at 1500 rpm. The supernatant is removed and the cells are resuspended in 50 μL DPBS. The cells are then transferred back to the receiver plate of the transwell system. […] The plate is incubated for 10 minutes in the dark, while shaking. 170 μL of cell lysate is then transferred to a white 96-well plate and luminescence is measured. The detected luminescent signal is considered as linearly related to the number of cells having migrated from the upper well to the receiver well.
# The same assay as described above is also performed using IL8 (25 ng/mL) as a chemotactic agent instead of Embelin.
# [2] = target: T1, GPR84 (Homo sapiens, UniProt Q9NQS5); test: Functional GPR84 activation assay: GTP-γS binding assay; type: biochemical; parameters: expressed in transfected cells; settings: membranes over expressing GPR84; 3,3′ di indolylmethane at EC80; read-out: GTPgS binding EC50
# Procedure: The following assay can be used for determination of GPR84 activation.
# The assay is performed in a 96 well plate where the following reagents were added. […] In a last step, 30 μL of a mixture consisting of membranes-GTPγS-SpA beads is added [mixture consists of 20 μg/well membranes derived from stable cell line over expressing GPR84 (membranes are pre-incubated with 0.1 μM GDP for 15 min at 4° C.), 0.1 nM [^35S]GTPγS (Perkin Elmer, NEG030) and 0.5 mg/well PVT-WGA SpA beads (Perkin Elmer, RPNQ0001)]. All components are diluted in assay buffer containing 20 mM Hepes pH 7.4; 5 mM MgCl2; 250 mM NaCl; 0.05% BSA; 75 ug/mL saponin. Reactions are incubated for 90 min at room temperature followed by centrifugation at 2000 rpm for 15 min. Plates are read on a Topcount reader (Perkin Elmer) immediately after centrifugation (readout time, 1 min/well).
# [3] = target: T1, GPR84; test: Human neutrophil migration inhibition assay, Embelin as chemotactic agent; type: cell-based; settings: for inhibition at 0.1 µM / inhibition at 1 µM / inhibition at 10 µM: 5 μM Embelin; for inhibition at 0.1 µM: compound 0.1 μM, read-out: Percentage of chemotaxis inhibition (PIN) @ 0.1 μM; for inhibition at 1 µM: compound 1 μM, read-out: Percentage of chemotaxis inhibition (PIN) @ 1 μM; for inhibition at 10 µM: compound 10 μM, read-out: Percentage of chemotaxis inhibition (PIN) @ 10 μM; for IC50: human neutrophils, Embelin as chemotactic agent, read-out: Embelin-induced neutrophil chemotaxis IC50; for induction of neutrophil chemotaxis: GPR84 agonist used as chemotactic agent
# [4] = tested on: chronic DSS-induced colitis; test: Mouse chronic DSS-induced inflammatory bowel disease model; type: in vivo; settings: female BALB/c mice, p.o., data not shown
# Description: The compounds identified using the assay method described in Example 2, or others herein, can be further validated in vivo using known disease models. The mouse chronic DSS-induced inflammatory bowel disease model (IBD) is a well validated disease model for inflammatory bowel disease (Wirtz S. et al., 2007 Nature Protocols 2, 541-546; Sina C. et al., 2009 J. Immunol 183 7514-7522).
# To induce a chronic colitis, female BALB/c mice are fed with 4% dextran sodium sulfate (DSS) dissolved in drinking water for 4 days, followed by 3 days of regular drinking water. This cycle is repeated three times. This protocol allows inducing a strong colitis while avoiding high mortality rates. Animals are divided into several groups: • intact (water; vehicle alone, n=10), • diseased (DSS; vehicle alone, n=10), • sulfazalazine used as reference (DSS; sulfazalazine, p.o., n=10) and • the tested compound (DSS; test cpd, p.o., n=10).
# Clinical parameters are measured every other day. The disease activity index (DAI) is a composite measure combining of the individual scores for weight loss, stool consistency and rectal bleeding. Mice are sacrificed at day 20 of the experiment according to the protocol introduced by Sina et al. (2009). At sacrifice time, the complete colon is removed and rinsed with sterile PBS. […]
# [5] = target: T1, GPR84; parameters: expressed in transfected cells; settings: Wang 2006; WO 2007/027661; cited from earlier work
# [6] = tested on: RAW264.7 murine macrophage-like cells; settings: RAW264.7 cells stimulated with LPS; cited from earlier work
# [7] = tested on: tobacco smoke-induced pulmonary inflammation; test: Mouse tobacco smoke model; type: in vivo; settings: C57BL/6J mice, 4 daily tobacco smoke exposures; data not shown
# Description: To investigate test compounds, animals are divided into several groups: intact (no treatment, n=5), diseased (TS; vehicle alone, n=10), Roflumilast as reference (TS; Roflumilast n=10), and the test compound (TS; […]=10). […] At the end of 4 days, the numbers of macrophages, epithelial cells, neutrophils and lymphocytes are counted in the BAL. BAL was further analyzed for gene expression and protein level. Lung tissue is dissected for histological analysis, gene expression and protein level measurement.
# T1 sequence (Q9NQS5 whole entry): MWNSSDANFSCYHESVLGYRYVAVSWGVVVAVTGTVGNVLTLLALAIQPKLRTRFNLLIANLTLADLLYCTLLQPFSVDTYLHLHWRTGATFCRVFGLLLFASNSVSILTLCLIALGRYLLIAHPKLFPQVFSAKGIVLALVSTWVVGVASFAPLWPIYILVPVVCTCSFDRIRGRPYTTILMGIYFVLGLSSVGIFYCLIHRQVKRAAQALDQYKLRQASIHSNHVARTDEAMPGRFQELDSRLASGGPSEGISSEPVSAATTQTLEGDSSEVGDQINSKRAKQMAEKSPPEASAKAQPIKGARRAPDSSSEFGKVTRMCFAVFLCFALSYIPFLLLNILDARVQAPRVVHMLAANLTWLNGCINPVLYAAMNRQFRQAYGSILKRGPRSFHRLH
SMILES,EC50 [2] [nM],inhibition at 0.1 µM [3] [%],inhibition at 1 µM [3] [%],inhibition at 10 µM [3] [%],IC50 [3] [nM],induction of neutrophil chemotaxis [3],inhibition at 0.1 µM [1] [%],inhibition at 1 µM [1] [%],inhibition at 10 µM [1] [%],effect against chronic inflammatory bowel disease [4],GPR84 agonist activity [5],secretion of interleukin-12 p40 subunit (IL-12 p40) [6],percentage inhibition of neutrophil counts in BAL [7]
O=C(O)c1cc(/N=N/c2ccc(S(=O)(=O)Nc3ccccn3)cc2)ccc1O [sulfazalazine],,,,,,,,,,protective effect,,,
"c1ccc2c(Cc3c[nH]c4ccccc34)c[nH]c2c1 [3,3′ di indolylmethane, reference compound]",,,,,,induce neutrophil chemotaxis,,,,,some GPR84 agonist activity,,
"O=c1nc(OCC2COCCO2)cc2n1CCc1cc(COC3CCCC3)ccc1-2 (stereo not drawn) [Cpd 4, 9-Cyclopentyloxymethyl-2-([1,4]dioxan-2-ylmethoxy)-6,7-dihydro-pyrimido[6,1-a]isoquinolin-4-one]",,,,,,,3,3,19,,,,
"O=c1nc(OC[C@H]2COCCO2)cc2n1CCc1cc(COC3CCCC3)ccc1-2 [Cpd 6, 9-Cyclopentyloxymethyl-2-((R)-1-[1,4]dioxan-2-ylmethoxy)-6,7-dihydro-pyrimido[6,1-a]isoquinolin-4-one]",,,,,,,20,15,35,,,,
"O=c1nc(OCC2COCCO2)cc2n1CCc1cc(OCc3noc(C4CC4)n3)ccc1-2 (stereo not drawn) [Cpd 1, 9-(5-Cyclopropyl-[1,2,4]oxadiazol-3-ylmethoxy)-2-([1,4]dioxan-2-ylmethoxy)-6,7-dihydro-pyrimido[6,1-a]isoquinolin-4-one]",36,69,86,89,10.4,,1,-11,17,,,,
"CCCCCCCCCC(=O)[O-].[Na+] [sodium decanoate, reference compound]",,,,,,induce neutrophil chemotaxis,,,,,,,
"CCCCCCCCCCCC1=C(O)C(=O)C=C(O)C1=O [Embelin, 2,5-dihydroxy-3-undecyl-2,5-cyclohexadiene-1,4-dione, reference compound]",,,,,,induce neutrophil chemotaxis,,,,,some GPR84 agonist activity,,
CCCCCCCCCC(=O)O [capric acid],,,,,,,,,,,,dose-dependently increased,
O=C(Nc1c(Cl)cncc1Cl)c1ccc(OC(F)F)c(OCC2CC2)c1 [Roflumilast],,,,,,,,,,,,,around 60%
CCCCCCCCCCC(=O)O [undecanoic acid],,,,,,,,,,,,dose-dependently increased,
CCCCCCCCCCCC(=O)O [lauric acid],,,,,,,,,,,,dose-dependently increased,

# Second part, led by results:
EC50 [2] [nM],inhibition at 0.1 µM [3] [%],inhibition at 1 µM [3] [%],inhibition at 10 µM [3] [%],IC50 [3] [nM],induction of neutrophil chemotaxis [3],SMILES,inhibition at 0.1 µM [1] [%],inhibition at 1 µM [1] [%],inhibition at 10 µM [1] [%],effect against chronic inflammatory bowel disease [4],GPR84 agonist activity [5],secretion of interleukin-12 p40 subunit (IL-12 p40) [6],percentage inhibition of neutrophil counts in BAL [7]
69,52,95,103,41.4,,"CCC(C)(C)CNc1ccc2c(c1)CCn1c-2cc(OC[C@@H]2COCCO2)nc1=O [Cpd 8, 9-(2,2-Dimethyl-butylamino)-2-((S)-1-[1,4]dioxan-2-ylmethoxy)-6,7-dihydro-pyrimido[6,1-a]isoquinolin-4-one]",9,15,55,,,,
77,73,97,96,62.2,,"CC(C)C#Cc1ccc2c(c1)CCn1c-2cc(OC[C@@H]2COCCO2)nc1=O [Cpd 5, 2-((S)-1-[1,4]Dioxan-2-ylmethoxy)-9-(3-methyl-but-1-ynyl)-6,7-dihydro-pyrimido[6,1-a]isoquinolin-4-one]",30,29,48,,,,
41,54,90,81,83.4,,"O=c1nc(OCC2COCCO2)cc2n1CCc1cc(CCC(O)c3cccnc3)ccc1-2 (stereo not drawn) [Cpd 7, 2-([1,4]Dioxan-2-ylmethoxy)-9-(3-hydroxy-3-pyridin-3-yl-propyl)-6,7-dihydro-pyrimido[6,1-a]isoquinolin-4-one]",18,22,13,,,,
40,86,94,90,2.74,,"CCCC(O)C#Cc1ccc2c(c1)CCn1c-2cc(OCC2COCCO2)nc1=O (stereo not drawn) [Cpd 2, 2-([1,4]Dioxan-2-ylmethoxy)-9-(3-hydroxy-hex-1-ynyl)-6,7-dihydro-pyrimido[6,1-a]isoquinolin-4-one]",13,-6,20,,,,
25,38,81,72,6.34,,"O=c1nc(OCC2COCCO2)cc2n1CCc1cc(C#CCNc3ccccc3)ccc1-2 (stereo not drawn) [Cpd 3, 2-([1,4]Dioxan-2-ylmethoxy)-9-(3-phenylamino-prop-1-ynyl)-6,7-dihydro-pyrimido[6,1-a]isoquinolin-4-one]",2,1,-13,,,,
8,71,87,80,9.3,,"O=c1nc(OC[C@@H]2COCCO2)cc2n1CCc1cc(CCCNc3ccccc3)ccc1-2 [Cpd 10, 2-((S)-1-[1,4]Dioxan-2-ylmethoxy)-9-(3-phenylamino-propyl)-6,7-dihydro-pyrimido[6,1-a]isoquinolin-4-one]",13,7,24,,,,
75,64,94,88,40.8,,"O=c1nc(OC[C@@H]2COCCO2)cc2n1CCc1cc(OCC3CCCCO3)ccc1-2 (stereo partly drawn) [Cpd 9, 2-((S)-1-[1,4]Dioxan-2-ylmethoxy)-9-(tetrahydro-pyran-2-ylmethoxy)-6,7-dihydro-pyrimido[6,1-a]isoquinolin-4-one]",25,28,24,,,,
,66,90,86,3.9,,"CC(O)CCCc1ccc2c(c1)CCn1c-2cc(OC[C@@H]2COCCO2)nc1=O (stereo partly drawn) [Cpd 11, 2-((S)-1-[1,4]Dioxan-2-ylmethoxy)-9-(4-hydroxy-pentyl)-6,7-dihydro-pyrimido[6,1-a]isoquinolin-4-one]",7,0,12,,,,
